Common to all, as to test: Glucose transporter selectivity assay
Assay type in all cases: cell-based

Assay [1] addresses T1, GLUT1 transporter (DLD1 cells) (Homo sapiens, UniProt P11166).
T1 construct: DLD1 cells for GLUT1 transporter; endogenous in cells; host or cells: DLD1 (DLD1-WT)
The settings on record: 5 mM glucose, 1 uM Rotenone, 15 min, read-out: IC50 (nM) DLD1-WT Glust1. As for the experimental part: (§1) Glucose transporter selectivity assays were done as described by Siebeneicher et al (ChemMedChem 2016, 11, 1-12) with the following adjustments; DLD1 cells for GLUT1 transporter, DLD1-GLUT1−/− cells (Horizon discovery) for GLUT3 transporter and DLD1-GLUT1−/− overexpressing hGLUT2 cells for GLUT2 transporter. The cells were plated overnight in 96-well plate at 80% confluency in starvation medium (DMEM without glucose, 0.5 mM glutamine, 1 mM pyruvate and 1% FBS). The cells were then pretreated for 30 min with 1 uM Rotenone and the inhibitors (compound 145) at different concentrations. The assay was initiated by adding glucose (5 mM for DLD1 cells, 10 mM for DLD1-Glut1−/−) or fructose (10 mM for DLD1-Glut1−/−(hGLUT2) cells) and the plates were incubated for 15 min at 37° C. At the end of the incubation Cell-titer Glo was added to the wells and luminescence was measured. The inhibition IC50 was calculated using Prism software.

Assay [2] deals with T2, GLUT3 transporter (DLD1-GLUT1−/− cells) (Homo sapiens, UniProt P11169).
T2 construct: DLD1-GLUT1−/− cells (Horizon discovery) for GLUT3 transporter; host or cells: DLD1-GLUT1−/−
The settings on record: 10 mM glucose, 1 uM Rotenone, 15 min, read-out: IC50 (nM) DLD-Glut1−/− Glut3. How it is done: as §1

Assay [3] has as its target T3, GLUT2 transporter (DLD1-GLUT1−/− overexpressing hGLUT2 cells) (Homo sapiens, UniProt P11168).
T3 construct: expressed in transfected cells; host or cells: DLD1-GLUT1−/−
The settings on record: 10 mM fructose, 1 uM Rotenone, 15 min, read-out: IC50 (nM) DLD-Glut1−/− (Glut2) Glut2. As for the experimental part: as §1

T1 sequence (P11166 whole entry): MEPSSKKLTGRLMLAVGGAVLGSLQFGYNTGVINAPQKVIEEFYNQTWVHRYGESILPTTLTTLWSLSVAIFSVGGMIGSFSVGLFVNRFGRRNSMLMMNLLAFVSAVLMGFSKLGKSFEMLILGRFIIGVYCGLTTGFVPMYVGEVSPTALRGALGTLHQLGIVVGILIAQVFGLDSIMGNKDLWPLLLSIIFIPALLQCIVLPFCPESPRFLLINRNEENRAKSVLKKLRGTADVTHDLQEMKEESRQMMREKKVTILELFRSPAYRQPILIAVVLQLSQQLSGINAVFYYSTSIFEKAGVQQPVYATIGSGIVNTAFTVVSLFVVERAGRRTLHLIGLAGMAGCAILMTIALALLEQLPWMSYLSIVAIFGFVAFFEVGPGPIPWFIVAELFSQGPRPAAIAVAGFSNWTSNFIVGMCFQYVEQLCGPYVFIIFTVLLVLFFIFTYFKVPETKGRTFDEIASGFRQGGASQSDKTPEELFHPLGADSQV
T3 sequence (P11168 whole entry): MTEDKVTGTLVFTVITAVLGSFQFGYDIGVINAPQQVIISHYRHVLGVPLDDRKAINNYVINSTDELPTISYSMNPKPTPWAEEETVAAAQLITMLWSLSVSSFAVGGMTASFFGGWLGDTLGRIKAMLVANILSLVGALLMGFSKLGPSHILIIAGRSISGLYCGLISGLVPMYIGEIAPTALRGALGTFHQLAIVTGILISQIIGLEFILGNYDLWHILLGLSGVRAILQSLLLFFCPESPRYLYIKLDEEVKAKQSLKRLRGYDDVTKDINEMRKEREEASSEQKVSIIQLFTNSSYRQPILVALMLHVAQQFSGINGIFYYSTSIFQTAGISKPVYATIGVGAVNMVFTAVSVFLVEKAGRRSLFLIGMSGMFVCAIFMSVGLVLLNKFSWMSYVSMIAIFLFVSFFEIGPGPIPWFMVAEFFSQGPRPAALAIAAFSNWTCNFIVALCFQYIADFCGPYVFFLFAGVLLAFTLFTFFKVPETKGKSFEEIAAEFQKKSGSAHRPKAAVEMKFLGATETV
T2 sequence (P11169 whole entry): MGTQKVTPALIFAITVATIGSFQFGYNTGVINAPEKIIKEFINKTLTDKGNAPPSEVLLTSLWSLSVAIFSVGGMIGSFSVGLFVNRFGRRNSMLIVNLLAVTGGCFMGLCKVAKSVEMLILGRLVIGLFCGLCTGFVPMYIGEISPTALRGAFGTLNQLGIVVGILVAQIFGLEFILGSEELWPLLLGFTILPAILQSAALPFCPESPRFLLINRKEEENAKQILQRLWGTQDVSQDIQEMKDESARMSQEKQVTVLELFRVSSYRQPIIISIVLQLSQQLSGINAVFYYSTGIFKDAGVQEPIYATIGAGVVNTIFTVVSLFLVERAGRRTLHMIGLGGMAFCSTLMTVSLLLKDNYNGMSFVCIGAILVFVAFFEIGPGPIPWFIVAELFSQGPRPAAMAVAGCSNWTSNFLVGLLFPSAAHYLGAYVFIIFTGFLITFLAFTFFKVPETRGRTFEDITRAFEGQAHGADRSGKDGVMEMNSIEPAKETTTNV

In the case of `CC1(C)Cc2nc3sc4c(NCCc5ccc6[nH]cnc6c5)ncnc4c3cc2CO1` [Compound 145], the IC50 was found to be 19 nM in assay [1], 2 nM in assay [2] and 14 nM in assay [3].

These data come from patent US20230084927A1, “GLUCOSE UPTAKE INHIBITORS AND USES THEREOF” (METABOMED LTD., priority 2019, published 2023).
